In patent US3935199A, “Iminomethylindolines” (Mead Johnson & Company, priority 1974, dated 1976):
Counter-ions that a name gives are not always drawn. Like-named read-outs stand apart in the source and are kept apart here.

Legend:
[1] = system: phenylquinone writhing syndrome in mice; test: prevention of phenylquinone writhing (analgesic activity); type: in vivo; details: Mus musculus, sc, 10 min, read-out: ED50 (prevention of phenylquinone writhing)
Description: The prevention of this syndrome is employed as a measure of analgesic activity -- Hendershot and Forsaith, J. Pharmacol. Exp. Therap. […] In this test, groups of 10 to 20 mice are injected subcutaneously with graduated doses of the test compound. At the time of a predetermined peak effect, the animals are administered a dose of 2.5 milligrams per kilogram of body weight of phenylquinone intraperitoneally. The latter injection induces writhing episodes in the mice. […] A log dose-response curve is prepared and the dose of the test compound required to decrease the number of writhing episodes of 50 percent is estimated by interpolation.

[2] = system: chloral hydrate treated mice; test: chloral hydrate antagonism test in the mouse (sleeping time); type: in vivo, mouse (male albino mice); details: oral 20 mg/kg, followed by 300 mg/kg i.p. chloral hydrate, compared to saline-treated control group, read-out: Percent Reduction in Sleeping Time at 20 mg/kg Body Weight
Description: (§1) The compounds of the present invention effectively stimulate the central nervous system of mammals. Compounds having biological activity of this type are generally referred to as being analeptic agents.
According to the chloral hydrate antagonism test, groups of 20 fasted male albino mice are administered an oral dose of 20 milligrams per kilogram of the 1-iminomethylindoline test compound. This is followed immediately by an intraperitoneal dose of 300 milligrams per kilogram of chloral hydrate. The average reduction in sleeping time compared to a saline-treated control group is a measure of the central nervous system stimulant action of the test compound and is as follows for representative 1-iminomethylindolines of this invention.

[3] = system: pentobarbital treated cats; test: pentobarbital antagonism test in the cat; type: in vivo; details: comparison of 4-ethyl-4-methyl-2,6-piperidinedione and the two preferred compounds
Description: as §1
The pentobarbital antagonism test for the compounds of the present invention in the cat is carried out in the following fashion. A cat of either sex wherein a chronically indwelling intravenous cannula has been previously surgically inserted, is placed in an observation cubicle measuring 2 ft. × 2ft. × 2ft. The cat is allowed to move about freely at the end of a leash. A dose of 12 milligrams per kilogram of body weight of pentobarbital sodium in aqueous solution is infused at the rate of approximately 2 milligrams per kilogram per minute via tubing contained in the leash. One-half hour after the start of this infusion the cat is in a state of light anesthesia characterized by unconsciousness, immobility, relaxed nictating membrane, and is not responsive to handling but has active pinneal, palpebral and paw-pinch withdrawal reflexes. At this time the 1-iminomethylindoline compound is infused in concentration of 10 milligrams per milliter at a rate of 0.2 milliters per minute until (a) consciousness is restored, (b) a total of 25 milligrams per kilogram of body weight of test compound is administered or (c) mounting toxicity interferes. Consciousness is recognized by the presence of alertness to surroundings as indicated by the ability of the cat's eyes to follow a movement of a nearby object and in its attempts to assume an upright position.
Representative compounds of the present invention wherein a dose of up to 25 milligrams per kilogram of body weight restored consciousness to pentobarbital treated cats are Examples 1-4, 7-10, 12, 15, 17-20, (Table III).

motor activity in rats = test: activity cage technique (motor stimulation in rats); type: in vivo, rat
Text: The activity cage technique described by J. W. Kissel, Science, 139, 1224 (1963), was used to measure motor stimulation in rats. […] Since motor stimulation is generally associated with analeptic action, the instant compounds of this invention are unique in the respect that while they are analeptic agents they are not motor stimulants.

[4] = system: chloral hydrate treated mice; test: chloral hydrate antagonism test in the mouse (sleeping time); type: in vivo, mouse (male albino mice); details: po, read-out: dose producing a 50 percent reduction of the sleeping time
[5] = subcutaneous, phenylquinone 2.5 mg/kg i.p., episodes counted during 10 minutes
[6] = mouse, 300 mg/kg chloral hydrate, comparative test

Row | Compound | ED50 [1, 5] | inhibition in vivo at 20 mg/kg [2] | other results
1 | CN=CN1CCc2ccccc21.Cl [Example 1, 1-[(Methylimino)methyl]indoline hydrochloride] | 21.8 mg/kg | – | –
2 | CC(C)N=CN1CCc2ccccc21 [Example 2, 1-[(Isopropylimino)methyl]indoline hydrochloride hemihydrate] | – | 38% | –
3 | CC(=O)c1ccc2c(c1)CCN2C1=NCCC1 [Example 17, 5-Acetyl-1-[2-(1-pyrrolinyl)]indoline] | 7.7 mg/kg | 62% | comparison of pentobarbital antagonism: restoring consciousness to a pentobarbital treated cat [3]: substantially equiactive; motor activity (motor activity in rats): did not produce an increase in motor activity; ED50 [4, 6]: 10 mg/kg
4 | CN=CN1CCc2cc([N+](=O)[O-])ccc21.Cl [Example 19, 1-[(Methylimino)methyl]-5-nitro-indoline hydrochloride] | 10.3 mg/kg | – | –
5 | Cl.c1ccc2c(c1)CCN2C1=NCCN1 [Example 13, 1-(2-Imidazolin-2-yl)indoline hydrochloride] | 33.2 mg/kg | – | –
6 | O=[N+]([O-])c1ccc2c(c1)CCN2C1=NCCCCC1 [Example 21, 1-[7-(3,4,5,6-Tetrahydro-2H-azepinyl)]-5-nitroindoline hydrochloride] | – | 50% | –
7 | CC1CCC(N2CCc3ccccc32)=N1 (centres unmarked) [Example 8, 1-[2-(5-Methyl-1-pyrrolinyl)]indoline hydrochloride] | 13 mg/kg | 36% | –
8 | CC1(C)CCC(N2CCc3ccccc32)=N1 [Example 9, 1-[2-(5,5-Dimethyl-1-pyrrolinyl)]-indoline hydrochloride] | – | 65% | comparison of pentobarbital antagonism: restoring consciousness to a pentobarbital treated cat [3]: substantially equiactive; motor activity (motor activity in rats): did not produce an increase in motor activity; ED50 [4, 6]: 15 mg/kg
9 | c1ccc2c(c1)CCN2C1=NCCCCC1 [Example 11, 1-[7-(3,4,5,6-Tetrahydro-2H-azepinyl)]-indoline hydrochloride] | 17.1 mg/kg | – | –
10 | c1ccc2c(c1)CCN2C1=NCCC1 [Example 7, 1-[2-(1-Pyrrolinyl)]indoline hydrochloride] | 3.85 mg/kg | 10% | –
11 | CN=C(NC)N1CCc2ccccc21 [Example 4, 1-(N,N'-Dimethylamidino)indoline] | – | 24% | –
12 | CN=C(C)N1CCc2ccccc21.Cl [Example 3, 1-[1-(Methylimino)ethyl]indoline hydrochloride] | 15.8 mg/kg | 24% | –
13 | CC(=O)c1ccc2c(c1)CCN2C1=NCCCCC1 [Example 18, 5-Acetyl-1-[7-(3,4,5,6-tetrahydro-2H-azepinyl)]indoline hydrochloride] | 16.2 mg/kg | 17% | –
14 | c1ccc2c(c1)CCN2C1=NCCSC1 [Example 12, 1-[5,6-Dihydro-3-(2H-thiazinyl)]indoline hydrochloride] | 11.3 mg/kg | – | –
15 | CC(=O)Oc1ccccc1C(=O)O [Aspirin, reference compound] | – | – | ED50 [1]: 20 mg/kg
16 | Cl.c1ccc2c(c1)CCN2C1=NCCCC1 [Example 10, 1-(3,4,5,6-Tetrahydro-2-pyridyl)-indoline hydrochloride] | 5.7 mg/kg | – | –
17 | CCC1(C)CC(=O)NC(=O)C1 [4-ethyl-4-methyl-2,6-piperidinedione, reference compound] | – | – | comparison of pentobarbital antagonism: restoring consciousness to a pentobarbital treated cat [3]: substantially equiactive; ED50 ([4]; Mus musculus): 14.4 mg/kg
